This passage reports IC50 results from patent publication US11420961B2, “Heterocyclic compounds” (Hoffmann-La Roche Inc., priority 2017, dated 2022).

The experiment deals with T1, MAGL (recombinant wild-type) (Homo sapiens, UniProt Q99685).
T1 sequence (Q99685 1-303): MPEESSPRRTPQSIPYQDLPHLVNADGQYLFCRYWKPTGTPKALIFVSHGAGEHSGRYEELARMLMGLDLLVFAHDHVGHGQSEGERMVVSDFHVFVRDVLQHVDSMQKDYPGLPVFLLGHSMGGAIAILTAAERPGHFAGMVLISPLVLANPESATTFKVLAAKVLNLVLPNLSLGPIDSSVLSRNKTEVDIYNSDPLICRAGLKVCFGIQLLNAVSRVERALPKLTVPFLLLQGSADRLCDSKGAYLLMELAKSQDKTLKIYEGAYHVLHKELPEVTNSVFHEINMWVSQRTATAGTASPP
The experiment is described as follows: 4-NPA assay: MAGL inhibitory activity by hydrolysis of 4-nitrophenylacetate, absorbance at 405 nm. It counts as biochemical. To be noted: 4-NPA assay (values without footnote [a]). On the procedure: Compounds were profiled for MAGL inhibitory activity by measuring the enzymatic activity of MAGL by following the hydrolysis of 4-nitorphenylacetate resulting in 4-nitrophenol, which absorbs at 405-412 nm (G. G. Muccioli, G. Labar, D M. Lambert, Chem. Bio. Chem. 2008, 9, 2704-2710). This assay is hereinafter abbreviated “4-NPA assay”.
The 4-NPA assay was carried out in 384 well assay plates (black with clear bottom, non-binding surface treated, Corning Ref. 3655) in a total volume of 40 μL. Compound dilutions were made in 100% DMSO (VWR Chemicals 23500.297) in a polypropylene plate in 3-fold dilution steps to give a final concentration range in the assay from 25 μM to 1.7 nM. 1 μL compound dilutions (100% DMSO) were added to 19 μL MAGL (recombinant wild-type) in assay buffer (50 mM TRIS (GIBCO, 15567-027), 1 mM EDTA (Fluka, 03690-100 ml)). The plate was shaked for 1 min at 2000 rpm (Variomag Teleshake) and then incubated for 15 min at RT. To start the reaction, 20 μL 4-Nitrophenlyacetate (Sigma N-8130) in assay buffer with 6% EtOH was added. The final concentrations in the assay were 1 nM MAGL and 300 μM 4-Nitrophenylacetate. After shaking (1 min, 2000 rpm) and 5 min incubation at RT, the absorbance at 405 nm was measured for a first time (Molecular Devices, SpectraMax Paradigm). A second measurement was then done after incubation for 80 min at RT. From the two measurements, the slope was calculated by substracting the first from the second measurement.
Turning to `O=C1COc2ccc(C(=O)N3CCC([C@@H](c4ccccc4)c4ccc(OCCF)cc4)CC3)cc2N1` [Example 80, 6-[4-[(S)-[4-(2-fluoroethoxy)phenyl]-phenyl-methyl]piperidine-1-carbonyl]-4H-1,4-benzoxazin-3-one], the IC50 (commonly the concentration that gives 50% inhibition) worked out at 0.3 nM.

In the case of `O=C1COc2ccc(C(=O)N3CCN(c4cc(C(F)(F)F)ccn4)CC3)cc2N1` [Example 88, 6-[4-[4-(trifluoromethyl)-2-pyridyl]piperazine-1-carbonyl]-4H-1,4-benzoxazin-3-one], the IC50 is 1480 nM.

On to `Cn1cc(C2CCN(C(=O)c3ccc4c(c3)NC(=O)CO4)CC2)c2ccc(Cl)cc21` [Example 30, 6-[4-(6-chloro-1-methylindol-3-yl)piperidine-1-carbonyl]-4H-1,4-benzoxazin-3-one], for which the 50% inhibitory concentration (IC50) was found to be 22.9 nM.

`O=C1COc2ccc(C(=O)N3CCC([C@@H](c4ccccc4)c4ccc(F)cc4)CC3)cc2N1` (single isomer, unassigned) [Example 6]: the IC50 is 0.9 nM.

Take `O=C1COc2ccc(C(=O)N3CCN(c4ccc(Cl)c(C(F)(F)F)c4)CC3)cc2N1` [Example 85, 6-[4-[4-chloro-3-(trifluoromethyl)phenyl]piperazine-1-carbonyl]-4H-1,4-benzoxazin-3-one]: the half-maximal inhibitory concentration (IC50) was determined as 497 nM.

Turning to `O=C1COc2ccc(C(=O)N3CCN(c4cc(Cl)cc(Cl)c4)CC3)cc2N1` [Example 87, 6-[4-(3,5-dichlorophenyl)piperazine-1-carbonyl]-4H-1,4-benzoxazin-3-one], the IC50 was found to be 1320 nM.

Regarding `O=C1COc2ccc(C(=O)N3CCC(c4cn(C5CC5)c5cc(Cl)ccc45)CC3)cc2N1` [Example 34, 6-[4-(6-chloro-1-cyclopropylindol-3-yl)piperidine-1-carbonyl]-4H-1,4-benzoxazin-3-one], the half-inhibitory concentration (IC50) is 36 nM.

Regarding `O=C1COc2ccc(C(=O)N3CCC([C@@H](c4ccc(F)cc4)c4cccc(OCCF)c4)CC3)cc2N1` [Example 77, 6-[4-[(S)-[3-(2-fluoroethoxy)phenyl]-(4-fluorophenyl)methyl]piperidine-1-carbonyl]-4H-1,4-benzoxazin-3-one], the IC50 turned out to be 1.66 nM.

As for `O=C1COc2ccc(C(=O)N3CCC(c4c[nH]c5cc(C(F)(F)F)ccc45)CC3)cc2N1` [Example 25, 6-[4-[6-(trifluoromethyl)-1H-indol-3-yl]piperidine-1-carbonyl]-4H-1,4-benzoxazin-3-one], the IC50 is 29 nM.

`O=C1COc2ccc(C(=O)N3CCC(C(c4ccc(F)cc4)c4ccnc(F)c4)CC3)cc2N1` (single isomer, unassigned) [Example 110, 6-[4-[(S or R)-(4-Fluorophenyl)-(2-fluoro-4-pyridyl)methyl]piperidine-1-carbonyl]-4H-1,4-benzoxazin-3-one]: the IC50 is 6.2 nM.

`O=C1COc2ccc(C(=O)N3CCC(C(c4ccccc4)c4ccc(OCCF)cc4)CC3)cc2N1` (stereo not shown) [Example 73, 6-[4-[[4-(2-fluoroethoxy)phenyl]-penyl-methyl]piperidine-1-carbonyl]-4H-1,4-benzoxazin-3-one]: the IC50 turned out to be 0.73 nM.

`Cc1ccc([C@H](c2ccccc2)C2CCN(C(=O)c3ccc4c(c3)NC(=O)CO4)CC2)cc1` (single isomer, unassigned) [Example 14]: the concentration for half-maximal inhibition (IC50) is 0.5 nM.

As to `O=C1COc2ccc(C(=O)N3CCC(c4c[nH]c5ccc(F)cc45)CC3)cc2N1` [Example 22, 6-[4-(5-fluoro-1H-indol-3-yl)piperidine-1-carbonyl]-4H-1,4-benzoxazin-3-one], the half-maximal inhibitory concentration (IC50) is 8.27 nM.

As to `O=C1COc2ccc(C(=O)N3CCC(n4cnc5ccccc54)CC3)cc2N1` [Example 49, 6-[4-(benzimidazol-1-yl)piperidine-1-carbonyl]-4H-1,4-benzoxazin-3-one], the half-inhibitory concentration (IC50) turned out to be 5540 nM.

As for `O=C1COc2ccc(C(=O)N3CCC(c4n[nH]c5cc(F)ccc45)CC3)cc2N1` [Example 43, 6-[4-(6-fluoro-1H-indazol-3-yl)piperidine-1-carbonyl]-4H-1,4-benzoxazin-3-one], the IC50 is 180 nM.

Regarding `O=C1COc2ccc(C(=O)N3CCC(c4cc5ccccc5[nH]4)CC3)cc2N1` [Example 40, 6-[4-(1H-indol-2-yl)piperidine-1-carbonyl]-4H-1,4-benzoxazin-3-one], the 50% inhibitory concentration (IC50) came to 550 nM.

As to `Cc1cccc([C@H](c2ccccc2)C2CCN(C(=O)c3ccc4c(c3)NC(=O)CO4)CC2)c1` (single isomer, unassigned) [Example 16], the IC50 came out at 0.5 nM.

With `COc1ccc(C(c2ccncc2)C2CCN(C(=O)c3ccc4c(c3)NC(=O)CO4)CC2)cc1OC` (single isomer, unassigned) [Example 125, 6-[4-[(S or R)-(3,4-Dimethoxyphenyl)-(4-pyridyl)methyl]piperidine-1-carbonyl]-4H-1,4-benzoxazin-3-one], the IC50 was found to be 7.7 nM.

Consider `O=C1COc2ccc(C(=O)N3CCC([C@H](c4ccccc4)c4ccc(OCCF)cc4)CC3)cc2N1` [Example 79, 6-[4-[(R)-[4-(2-fluoroethoxy)phenyl]-phenyl-methyl]piperidine-1-carbonyl]-4H-1,4-benzoxazin-3-one], for which the IC50 worked out at 6 nM.

As for `COc1ccc(C(c2ccc(F)cc2)C2CCN(C(=O)c3ccc4c(c3)NC(=O)CO4)CC2)cc1OC` (single isomer, unassigned) [Example 104, 6-[4-[(S or R)-(3,4-Dimethoxyphenyl)-(4-fluorophenyl)methyl]piperidine-1-carbonyl]-4H-1,4-benzoxazin-3-one], the IC50 worked out at 0.3 nM.

In the case of `O=C1COc2ccc(C(=O)N3CCC(c4noc5cc(F)ccc45)CC3)cc2N1` [Example 51, 6-[4-(6-fluoro-1,2-benzoxazol-3-yl)piperidine-1-carbonyl]-4H-1,4-benzoxazin-3-one], the IC50 stood at 370 nM.

In the case of `Cn1cc(C2CCN(C(=O)c3ccc4c(c3)NC(=O)CO4)CC2)c2cc(Cl)ccc21` [Example 29], the 50% inhibitory concentration (IC50) was 1.7 nM.

As to `O=C1COc2ccc(C(=O)N3CCC(C(c4ccccc4)c4cccnc4F)CC3)cc2N1` (stereo not shown) [Example 78, 6-[4-[(2-fluoro-3-pyridyl)-phenyl-methyl]piperidine-1-carbonyl]-4H-1,4-benzoxazin-3-one], the concentration for half-maximal inhibition (IC50) was 1.84 nM.

In the case of `Cc1ccc(C(c2ccc(F)cc2)C2CCN(C(=O)c3ccc4c(c3)NC(=O)CO4)CC2)cc1` (single isomer, unassigned) [Example 113, 6-[4-[(R or S)-(4-Fluorophenyl)-(p-tolyl)methyl]piperidine-1-carbonyl]-4H-1,4-benzoxazin-3-one], the IC50 came to 0.4 nM.

Take `O=C1COc2ccc(C(=O)N3CCC(C(c4ccc(F)cc4)c4cccc(OCCOCCF)c4)CC3)cc2N1` (single isomer, unassigned) [Example 94, 6-[4-[(S or R)-[3-[2-(2-Fluoroethoxy)ethoxy]phenyl]-(4-fluorophenyl)methyl]piperidine-1-carbonyl]-4H-1,4-benzoxazin-3-one]: the IC50 is 0.4 nM.

Turning to `Cn1nc(C2CCN(C(=O)c3ccc4c(c3)NC(=O)CO4)CC2)c2ccc(Cl)cc21` [Example 39, 6-[4-(6-chloro-1-methylindazol-3-yl)piperidine-1-carbonyl]-4H-1,4-benzoxazin-3-one], the IC50 was 84 nM.

As to `COc1ccc(C(c2cccnc2)C2CCN(C(=O)c3ccc4c(c3)NC(=O)CO4)CC2)cc1OC` (single isomer, unassigned) [Example 122, 6-[4-[(R or S)-(3,4-Dimethoxyphenyl)-(3-pyridyl)methyl]piperidine-1-carbonyl]-4H-1,4-benzoxazin-3-one], the concentration for half-maximal inhibition (IC50) stood at 3.6 nM.

Regarding `O=C1COc2ccc(C(=O)N3CCC(c4noc5cc(C(F)(F)F)ccc45)CC3)cc2N1` [Example 50, 6-[4-[6-(trifluoromethyl)-1,2-benzoxazol-3-yl]piperidine-1-carbonyl]-4H-1,4-benzoxazin-3-one], the IC50 is 150 nM.

As to `O=C1COc2ccc(C(=O)N3CCC([C@H](c4ccccc4)c4ccc(F)cc4)CC3)cc2N1` (single isomer, unassigned) [Example 7], the concentration for half-maximal inhibition (IC50) turned out to be 0.9 nM.

Turning to `O=C1COc2ccc(C(=O)N3CCC(C(c4ccc(F)cc4)c4cccc(F)n4)CC3)cc2N1` (single isomer, unassigned) [Example 119, 6-[4-[(R or S)-(4-Fluorophenyl)-(6-fluoro-2-pyridyl)methyl]piperidine-1-carbonyl]-4H-1,4-benzoxazin-3-one], the IC50 turned out to be 9.1 nM.

Regarding `COc1cccc([C@@H](c2ccccc2)C2CCN(C(=O)c3ccc4c(c3)NC(=O)CO4)CC2)c1` (single isomer, unassigned) [Example 13], the IC50 amounted to 0.5 nM.
